How the values were obtained:
Assay in all cases: relative viability (nuclei count vs DMSO), 5 days (fraction); higher = more cells survive
[1] = compound: Cc1ccc(NC(=O)c2ccc(CN3CCN(C)CC3)cc2)cc1Nc1nccc(-c2cccnc2)n1 [Imatinib] + Cc1nc(Nc2ncc(C(=O)Nc3c(C)cccc3Cl)s2)cc(N2CCN(CCO)CC2)n1 [Dasatinib] (partner 0.075 µM)
In short: (§1)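 For relative viability, nuclei counts in treated wells were divided by those in vehicle wells. Lung cancer cell lines had been pin-tool dosed in 1536-well plates the day after seeding and cultured for 5 days, then fixed and stained in one step (final 0.05% Triton X-100, 1% formaldehyde, 1 ug/ml Hoechst) and imaged at 4×. Doses were one drug alone or a fixed anchor-drug dose plus five library-drug doses (not always all listed) in √10 steps, and values are duplicate-plate medians.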

[2] = compound: Cc1ccc(NC(=O)c2ccc(CN3CCN(C)CC3)cc2)cc1Nc1nccc(-c2cccnc2)n1 [Imatinib] + Nc1nc2[nH]cc(CCc3ccc(C(=O)N[C@@H](CCC(=O)O)C(=O)O)cc3)c2c(=O)[nH]1 [Pemetrexed] (partner 0.2 µM)
In short: as §1

[3] = compound: Cc1ccc(NC(=O)c2ccc(CN3CCN(C)CC3)cc2)cc1Nc1nccc(-c2cccnc2)n1 [Imatinib] + N=C(N)NC(=N)NCCc1ccccc1 [Phenformin] (partner 250 µM)
In short: as §1

[4] = compound: Cc1ccc(NC(=O)c2ccc(CN3CCN(C)CC3)cc2)cc1Nc1nccc(-c2cccnc2)n1 [Imatinib] + COc1cc2c(Oc3ccc(NC(=O)C4(C(=O)Nc5ccc(F)cc5)CC4)cc3F)ccnc2cc1OCCCN1CCOCC1 [Foretinib] (partner 0.25 µM)
In short: as §1

| Cell Line | relative viability ([1]; first compound 0.02 µM) | relative viability ([1]; first compound 0.06325 µM) | relative viability ([1]; first compound 0.2 µM) | relative viability ([1]; first compound 0.6325 µM) | relative viability ([1]; first compound 2 µM) | relative viability ([2]; first compound 0.02 µM) | relative viability ([2]; first compound 0.06325 µM) | relative viability ([2]; first compound 0.2 µM) | relative viability ([2]; first compound 0.6325 µM) | relative viability ([2]; first compound 2 µM) | relative viability ([3]; first compound 0.02 µM) | relative viability ([3]; first compound 0.06325 µM) | relative viability ([3]; first compound 0.2 µM) | relative viability ([3]; first compound 0.6325 µM) | relative viability ([3]; first compound 2 µM) | relative viability ([4]; first compound 0.02 µM) | relative viability ([4]; first compound 0.06325 µM) | relative viability ([4]; first compound 0.2 µM) | relative viability ([4]; first compound 0.6325 µM) | relative viability ([4]; first compound 2 µM) |
| --- | --- | --- | --- | --- | --- | --- | --- | --- | --- | --- | --- | --- | --- | --- | --- | --- | --- | --- | --- | --- |
| NCI-H647 | 0.198 | 0.183 | 0.142 | 0.181 | 0.148 | 0.18 | 0.183 | 0.192 | 0.202 | 0.158 | 0.518 | 0.696 | 0.611 | 0.513 | 0.461 | 1.51 | 1.27 | 1.57 | 1.25 | 1.06 |
| NCI-H650 | 0.5 | 0.425 | 0.488 | 0.53 | 0.406 | 0.986 |  | 0.834 | 0.951 | 0.875 | 0.505 | 0.435 | 0.516 | 0.494 | 0.425 | 1.07 | 0.78 | 1.03 | 1.17 | 0.977 |
| NCI-H661 | 1.09 | 0.57 | 0.753 | 0.958 | 0.769 | 0.915 | 1.09 | 0.93 | 0.931 | 0.936 | 0.245 | 0.255 | 0.259 | 0.263 | 0.258 | 1 | 1.04 | 1.1 | 0.94 | 1.02 |
| NCI-H838 | 0.268 | 0.307 | 0.3 | 0.297 | 0.358 | 0.249 | 0.26 | 0.251 | 0.253 | 0.247 | 0.555 | 0.668 | 0.64 | 0.619 | 0.596 | 1.15 | 1.17 | 1.07 | 1.02 | 1.02 |
| NCI-H1355 | 0.766 |  | 0.659 | 0.696 | 0.678 | 1.14 |  | 1.11 | 1.08 | 1.01 | 0.493 |  | 0.461 | 0.409 | 0.391 | 1.05 |  | 1.07 | 0.964 | 0.983 |
| NCI-H1395 | 0.438 | 0.347 | 0.381 | 0.393 | 0.418 | 0.807 |  | 0.955 | 1.04 | 0.784 | 0.472 | 0.4 | 0.438 | 0.471 | 0.447 | 0.952 | 1.15 | 1 |  | 1.02 |
| NCI-H1437 | 0.444 | 0.309 | 0.409 | 0.25 | 0.334 | 0.318 | 0.354 | 0.374 | 0.33 | 0.279 | 0.267 | 0.326 | 0.361 | 0.308 | 0.283 | 1.37 | 1.26 | 1.33 | 1.22 | 1.24 |
| NCI-H1563 | 0.458 | 0.523 | 0.457 | 0.421 | 0.448 | 0.861 | 0.678 | 0.787 | 0.772 | 0.631 | 0.634 | 0.648 | 0.658 | 0.607 | 0.625 | 0.924 |  | 0.902 | 0.845 | 0.925 |
| NCI-H1650 | 0.371 | 0.262 | 0.326 | 0.285 | 0.261 | 0.414 | 0.405 | 0.362 | 0.335 | 0.416 | 0.499 | 0.473 | 0.329 | 0.388 | 0.385 | 0.962 |  | 1.01 | 1.2 | 1.06 |
| NCI-H1651 | 0.333 | 0.355 | 0.427 | 0.378 | 0.414 | 0.617 | 0.339 | 0.586 | 0.58 | 0.555 | 0.338 | 0.35 | 0.329 | 0.339 | 0.374 | 0.902 | 0.619 | 0.87 | 0.79 | 0.77 |
| NCI-H1666 | 0.83 | 0.838 | 0.825 | 0.792 | 0.697 | 0.902 | 0.906 | 0.897 | 0.842 | 0.842 | 0.534 | 0.613 | 0.592 | 0.663 | 0.551 | 0.926 | 0.911 | 0.943 | 1.15 | 0.966 |
| NCI-H1734 | 0.478 | 0.457 | 0.45 | 0.442 | 0.427 | 0.402 |  | 0.425 | 0.377 | 0.388 | 0.382 | 0.389 | 0.431 | 0.368 | 0.357 | 1.06 | 1.2 | 0.939 | 0.776 | 0.87 |
| NCI-H1755 | 0.415 | 0.392 | 0.41 | 0.422 | 0.408 | 0.568 | 0.44 | 0.416 | 0.386 | 0.625 | 0.643 | 0.674 | 0.596 | 0.568 | 0.536 | 0.917 | 1.02 | 0.98 | 0.948 |  |
| NCI-H1793 | 0.421 |  | 0.388 | 0.368 | 0.388 | 0.945 |  | 1 | 1.01 | 0.792 | 0.388 |  | 0.375 | 0.284 | 0.257 | 0.827 |  | 0.919 | 0.682 | 0.715 |
| NCI-H1915 | 0.298 |  | 0.368 | 0.312 | 0.305 | 0.536 |  | 0.516 | 0.461 | 0.572 | 0.38 |  | 0.387 | 0.377 | 0.371 | 1.17 |  | 1.25 | 1.05 | 1.08 |
| NCI-H1944 | 0.198 | 0.208 | 0.2 | 0.2 | 0.234 | 0.881 | 0.642 | 0.695 | 0.656 | 0.561 | 0.185 | 0.2 | 0.188 | 0.199 | 0.162 | 0.923 | 0.946 | 0.964 | 0.851 | 0.852 |
| NCI-H1975 | 0.426 | 0.262 | 0.38 | 0.371 | 0.259 | 0.308 | 0.299 | 0.299 | 0.309 | 0.284 | 0.446 | 0.43 | 0.407 | 0.425 | 0.357 | 1.09 | 0.986 | 0.879 | 0.954 | 0.871 |
| NCI-H1993 | 0.678 | 0.564 | 0.573 | 0.522 | 0.521 | 0.581 | 0.44 | 0.501 | 0.616 | 0.582 | 0.56 | 0.506 | 0.519 | 0.485 | 0.52 | 0.817 | 0.886 | 0.783 | 0.705 | 0.756 |
| NCI-H2009 | 0.282 |  | 0.304 | 0.253 | 0.288 | 1.11 | 1.17 | 1.05 | 0.984 | 0.993 | 0.518 |  | 0.485 | 0.445 | 0.383 | 1.29 |  | 1.27 | 1.25 | 1.23 |
| NCI-H2023 | 0.751 | 0.33 | 0.565 | 0.591 | 0.509 | 0.224 | 0.318 | 0.304 |  | 0.27 | 0.503 | 0.391 | 0.356 | 0.341 | 0.342 | 0.87 |  | 0.873 |  | 0.776 |
| NCI-H2085 |  | 0.18 | 0.248 | 0.208 | 0.228 | 0.837 | 0.892 | 0.917 |  | 0.834 | 0.867 | 0.694 | 0.748 | 0.752 | 0.704 |  | 0.941 | 1.02 | 1.01 | 0.972 |
| NCI-H2087 | 0.817 |  | 0.949 | 0.89 |  | 0.692 |  | 0.749 | 0.58 |  | 0.478 |  | 0.478 | 0.548 | 0.535 | 1.2 |  |  | 1.05 | 0.976 |
| NCI-H2126 | 0.705 |  | 0.537 | 0.457 | 0.517 | 0.667 | 0.524 | 0.704 | 0.634 | 0.725 | 0.514 |  | 0.57 |  | 0.501 | 1.36 | 0.958 | 1.31 | 1.02 |  |
| NCI-H2170 | 0.636 | 0.582 | 0.477 | 0.48 | 0.411 | 0.343 | 0.277 | 0.267 | 0.256 | 0.274 | 0.448 | 0.414 | 0.406 | 0.361 | 0.301 | 1.01 | 1.03 | 0.996 | 1.02 | 1 |
| NCI-H2228 | 0.621 |  | 0.464 | 0.424 | 0.55 | 0.344 | 0.389 | 0.303 | 0.345 | 0.33 | 0.335 |  | 0.268 | 0.277 | 0.272 | 0.905 |  | 0.891 | 0.886 | 0.899 |
| NCI-H2342 | 0.289 | 0.326 | 0.321 | 0.321 | 0.316 | 0.688 | 0.665 | 0.834 | 0.738 |  | 0.633 | 0.57 | 0.587 | 0.573 | 0.561 | 1.15 | 1.25 | 1.18 | 0.97 | 0.966 |
| NCI-H2347 | 0.317 | 0.266 | 0.256 | 0.283 | 0.251 | 0.371 | 0.44 | 0.416 | 0.467 | 0.416 | 0.381 | 0.376 | 0.386 | 0.307 | 0.381 |  |  | 0.905 | 0.703 | 1.1 |
| NCI-H2405 | 0.22 |  | 0.203 | 0.217 | 0.192 | 1.15 | 1.12 | 1.13 | 1.02 |  | 0.366 |  | 0.341 | 0.329 | 0.333 | 1.03 |  | 1.05 | 0.986 | 1.02 |
| NCI-H3122 |  | 0.518 | 0.921 | 0.894 | 0.808 | 0.202 | 0.211 | 0.198 | 0.185 | 0.2 | 0.394 | 0.38 | 0.366 |  | 0.357 | 0.879 | 1.12 |  | 0.887 | 0.984 |

Source: the supplement of paper PMC10307832
